These compounds were tested against T1, Mcl-1/Bim interaction, recombinant human Mcl-1 (171-327) (Homo sapiens, UniProt Q07820) (assay: Cell free Mcl-1: Bim Affinity Assay (Mcl-1 HTRF)). Details: TR-FRET, 0.1 nM Mcl-1 (171-327), 0.05 nM biotin-Bim (51-76).
T1 construct: made in house
Format: binding
How it was run: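 Biotin-Bim(51-76) peptide, TR-FRET readout, overnight incubation; IC50 from duplicate competition curves, 4-parameter fit.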

T1 sequence (Q07820 171-327): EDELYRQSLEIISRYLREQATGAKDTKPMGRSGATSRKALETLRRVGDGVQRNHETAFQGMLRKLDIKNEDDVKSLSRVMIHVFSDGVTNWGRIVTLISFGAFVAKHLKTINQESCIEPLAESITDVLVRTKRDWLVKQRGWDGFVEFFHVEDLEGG

SMILES | IC50
CS(=O)(=O)CCO[C@@H]1/C=C/CCCS(=O)(=O)NC(=O)c2ccc3c(c2)N(C[C@@H]2CC[C@H]21)C[C@@]1(CCCc2cc(Cl)ccc21)CO3 [Example 1095, (1S,3′R,6′R,7′R,8′E)-6-chloro-7′-(2-(methylsulfonyl)ethoxy)-3,4-dihydro-2H,15′H-spiro [naphthalene-1,22′-[20]oxa[13]thia[1,14]diazatetracyclo[14.7.2.0^3,6.0^19,24]pentacosa [8,16,18,24]tetraen]-15′-one 13′,13′-dioxide] | 1.29 nM
C[C@@H]1CC/C=C/[C@H](OCCS(C)(=O)=O)[C@@H]2CC[C@H]2CN2C[C@@]3(CCCc4cc(Cl)ccc43)COc3ccc(cc32)C(=O)NS1(=O)=O [Example 406, (1S,3′R,6′R,7′S,8′E,12′R)-6-chloro-12′-methyl-7′-(2-(methylsulfonyl)ethoxy)-3,4-dihydro-2H,15′H-spiro[naphthalene-1,22′-[20]oxa[13]thia[1,14]diazatetracyclo[14.7.2.0^3,6.0^19,24]pentacosa [8,16,18,24]tetraen]-15′-one 13′,13′-dioxide] | 0.602 nM
O=C1CCCS(=O)(=O)NC(=O)c2ccc3c(c2)N(C[C@@H]2CC[C@H]2CN1)C[C@@]1(CCCc2cc(Cl)ccc21)CO3 [Example 370, (1S,3′R,6′R)-6-chloro-3,4-dihydro-2H,9′H,15′H-spiro[naphthalene-1,22′-[20]oxa[13]thia[1,8,14]triazatetracyclo[14.7.2.0^3,6.0^19,24]pentacosa[16,18,24]triene]-9′,15′-dione 13′,13′-dioxide] | 4.5 nM
C/C=C/C1CC(=O)[C@@H]2CC[C@H]2CN2C[C@@]3(CCCc4cc(Cl)ccc43)COc3ccc(cc32)C(=O)NS(=O)(=O)[C@H](C)[C@@H](C)C1 (stereo in doubt) [Example 353, (1S,3′R,6′R,9′S,11′S,12′R)-6-chloro-11′,12′-dimethyl-9′-((1E)-1-propen-1-yl)-3,4-dihydro-2H,7′H,15′H-spiro[naphthalene-1,22′-[20]oxa[13]thia[1,14]diazatetracyclo[14.7.2.0^3,6.0^19,24]pentacosa [16,18,24]triene]-7′,15′-dione 13′,13′-dioxide] | 9.09 nM
CC[C@@H]1CC/C=C/[C@H](OCCO)[C@@H]2CC[C@H]2CN2C[C@@]3(CCCc4cc(Cl)ccc43)COc3ccc(cc32)C(=O)NS1(=O)=O [Example 970, (1S,3′R,6′R,7′S,8′E,12′R)-6-chloro-12′-ethyl-7′-(2-hydroxyethoxy)-3,4-dihydro-2H,15′H-spiro[naphthalene-1,22′-[20]oxa[13]thia[1,14]diazatetracyclo[14.7.2.0^3,6.0^19,24]pentacosa [8,16,18,24]tetraen]-15′-one 13′,13′-dioxide] | 0.859 nM
C[C@@H]1CC/C=C/[C@H](O)[C@]2(C)CC[C@H]2CN2C[C@@]3(CCCc4cc(Cl)ccc43)COc3ccc(cc32)C(=O)NS1(=O)=O (single isomer, unassigned) [Example 116] | 0.856 nM

Results, then the compound that gave them:

IC50 | SMILES
0.632 nM | C=C1CC/C=C/[C@H](O)[C@@H]2CC[C@H]2CN2C[C@@]3(CCCc4cc(Cl)ccc43)COc3ccc(cc32)C(=O)NS1(=O)=O (single isomer, unassigned) [Example 441]
0.644 nM | CC[C@@H]1CC/C=C/[C@H](OCC(=O)OC)[C@@H]2CC[C@H]2CN2C[C@@]3(CCCc4cc(Cl)ccc43)COc3ccc(cc32)C(=O)NS1(=O)=O [Example 991, methyl (((1S,3′R,6′R,7′S,8′E,12′R)-6-chloro-12′-ethyl-13′,13′-dioxido-15′-oxo-3,4-dihydro-2H-spiro[naphthalene-1,22′-[20]oxa[13]thia[1,14]diazatetracyclo[14.7.2.0^3,6.0^19,24]pentacosa [8,16,18,24]tetraen]-7′-yl)oxy)acetate]
0.755 nM | CC[C@@H]1CC/C=C/[C@H](OCCOC)[C@@H]2CC[C@H]2CN2C[C@@]3(CCCc4cc(Cl)ccc43)COc3ccc(cc32)C(=O)NS1(=O)=O [Example 980, (1S,3′R,6′R,7′S,8′E,12′R)-6-chloro-12′-ethyl-7′-(2-methoxyethoxy)-3,4-dihydro-2H,15′H-spiro[naphthalene-1,22′-[20]oxa[13]thia[1,14]diazatetracyclo[14.7.2.0^3,6.0^19,24]pentacosa [8,16,18,24]tetraen]-15′-one 13′,13′-dioxide]
0.378 nM | COCCOCC1CCC=CC(O)C2CCC2CN2CC3(CCCc4cc(Cl)ccc43)COc3ccc(cc32)C(=O)NS1(=O)=O (single isomer, unassigned) [Example 447]
0.273 nM | CCC[C@@H]1CC/C=C/[C@H](O)[C@@H]2CC[C@H]2CN2C[C@@]3(CCCc4cc(Cl)ccc43)COc3ccc(cc32)C(=O)NS1(=O)=O (single isomer, unassigned) [Example 434]
13.6 nM | O=C1NS(=O)(=O)CCCCCC[C@@H]2CC[C@H]2CN2C[C@@]3(CCCc4cc(Cl)ccc43)COc3ccc1cc32 [Example 1084, (1S,3′R,6′R)-6-chloro-3,4-dihydro-2H,15′H-spiro[naphthalene-1,22′-[20]oxa[13]thia[1,14]diazatetracyclo[14.7.2.0^3,6.0^19,24]pentacosa[16,18,24]trien]-15′-one 13′,13′-dioxide]

Same assay, conditions: cell free Mcl-1:Bim TR-FRET, recombinant human Mcl-1 (171-327)

SMILES | IC50
CS(=O)(=O)N[C@@H]1CCCCCS(=O)(=O)NC(=O)c2ccc3c(c2)N(C[C@@H]2CC[C@H]21)C[C@@]1(CCCc2cc(Cl)ccc21)CO3 (single isomer, unassigned) [Example 938] | 5.94 nM
C[C@@H]1[C@@H](O)C/C=C/C[C@@H]2CC[C@H]2CN2C[C@@]3(CCCc4cc(Cl)ccc43)COc3ccc(cc32)C(=O)NS1(=O)=O (single isomer, unassigned) [Example 504] | 2.55 nM
CC[C@@H]1/C=C/C[C@H](O)[C@@H]2CC[C@H]2CN2C[C@@]3(CCCc4cc(Cl)ccc43)COc3ccc(cc32)C(=O)NS1(=O)=O (single isomer, unassigned) [Example 766] | 6.5 nM
O=C1NS(=O)(=O)C/C=C/[C@@H](O)CC[C@@H]2CC[C@H]2CN2C[C@@]3(CCCc4cc(Cl)ccc43)COc3ccc1cc32 (single isomer, unassigned) [Example 501] | 1.49 nM
O=C1NS(=O)(=O)CCCCC[C@@H]2CC[C@H]2CN2C[C@@]3(CCCc4ccccc43)COc3ccc1cc32 [Example 823, (1S,3′R,6′R)-3,4-dihydro-2H,14′H-spiro[naphthalene-1,21′-[19]oxa[12]thia[1,13]diazatetracyclo[13.7.2.0^3,6.0^18,23]tetracosa [15,17,23]trien]-14′-one 12′,12′-dioxide] | 48.2 nM
O=C1NS(=O)(=O)CCC[C@@H](O)CC[C@@H]2CC[C@H]2CN2C[C@@]3(CCCc4cc(Cl)ccc43)COc3ccc1cc32 (single isomer, unassigned) [Example 503, (1S,3′R,6′S,9′S)-6-chloro-9′-hydroxy-3,4-dihydro-2H,15′H-spiro[naphthalene-1,22′-[20]oxa[13]thia[1,14]diazatetracyclo[14.7.2.0^3,6.0^19,24]pentacosa [16,18,24]trien]-15′-one 13′,13′-dioxide or (1S,3′R,6′S,9′R)-6-chloro-9′-hydroxy-3,4-dihydro-2H,15′H-spiro[naphthalene-1,22′-[20]oxa[13]thia[1,14]diazatetracyclo[14.7.2.0^3,6.0^19,24]pentacosa [16,18,24]trien]-15′-one 13′,13′-dioxide] | 3.96 nM
CC(C)(O)[C@@H]1CC/C=C/[C@H](O)[C@@H]2CC[C@H]2CN2C[C@@]3(CCCc4cc(Cl)ccc43)COc3ccc(cc32)C(=O)NS1(=O)=O (single isomer, unassigned) [Example 697] | 0.746 nM
CC[C@H]1CC/C=C/[C@H](O)[C@@H]2CC[C@H]2CN2C[C@@]3(CCc4cc(Cl)ccc43)COc3ccc(cc32)C(=O)NS1(=O)=O (single isomer, unassigned) [Example 699] | 0.649 nM
O=C1NS(=O)(=O)C/C=C/CC[C@H](O)[C@@H]2CC[C@H]2CN2C[C@@]3(CCCc4cc(Cl)ccc43)COc3ccc1cc32 [Example 808, (1S,3′R,6′R,7′S,10′E)-6-chloro-7′-hydroxy-3,4-dihydro-2H,15′H-spiro[naphthalene-1,22′-[20]oxa[13]thia[1,14]diazatetracyclo[14.7.2.0^3,6.0^19,24]pentacosa [10,16,18,24]tetraen]-15′-one 13′,13′-dioxide] | 1.54 nM
O=C1NS(=O)(=O)CCCC2(O)CCOC(C2)C2CCC2CN2CC3(CCCc4cc(Cl)ccc43)COc3ccc1cc32 (single isomer, unassigned) [Example 910] | 5.8 nM

More lines, now with the values ahead:

IC50 | SMILES
21.1 nM | O=C1NS(=O)(=O)CCCC[C@@H]2CC[C@H]2CN2C[C@@]3(CCCc4cc(Cl)ccc43)COc3ccc1cc32 [Example 830, (1S,3′S,6′S)-6-chloro-3,4-dihydro-2H,13′H-spiro[naphthalene-1,20′-[18]oxa[11]thia[1,12]diazatetracyclo[14.7.2.0^3,6.0^19,24]tricosa[14, 16,22]trien]-13′-one 11′,11′-dioxide]
7.78 nM | O=C1NS(=O)(=O)C/C=C/C[C@@H](O)C[C@@H]2CC[C@H]2CN2C[C@@]3(CCCc4cc(Cl)ccc43)COc3ccc1cc32 (single isomer, unassigned) [Example 912]
22.2 nM | O=C1NS(=O)(=O)CCCCC(O)CC2CCC2CN2CC3(CCCc4cc(Cl)ccc43)COc3ccc1cc32 (single isomer, unassigned) [Example 881, (1S,3′R,6′S,8′S)-6-chloro-8′-hydroxy-3,4-dihydro-2H,15′H-spiro[naphthalene-1,22′-[20]oxa[13]thia[1,14]diazatetracyclo[14.7.2.0^3,6.0^19,24]pentacosa[16,18,24]trien]-15′-one 13′,13′-dioxide or (1S,3′R,6′S,8′R)-6-chloro-8′-hydroxy-3,4-dihydro-2H,15′H-spiro[naphthalene-1,22′-[20]oxa[13]thia[1,14]diazatetracyclo[14.7.2.0^3,6.0^19,24]pentacosa[16,18,24]trien]-15′-one 13′,13′-dioxide]
3.43 nM | C[C@H](O)C[C@H]1CC/C=C/[C@H](O)[C@@H]2CC[C@H]2CN2C[C@@]3(CCCc4cc(Cl)ccc43)COc3ccc(cc32)C(=O)NS1(=O)=O (single isomer, unassigned) [Example 551]

From patent US12091425B2 (AMGEN INC., priority 2016, dated 2024)
